# Patent US9226919B2, “Methods for dosing an orally active 1,2,4-oxadiazole” (PTC Therapeutics, Inc., priority 2006, dated 2016)
# Test system: CFTR
# Experiment: Transepithelial potential difference (TEPD) chloride conductance, Phase 2 cystic fibrosis study
# Assay type: in vivo, human
# Conditions: 15 CF patients
# Method: The measurement of transepithelial potential difference (TEPD), also known as nasal potential difference, provides a sensitive evaluation of sodium and chloride transport directly in secretory epithelial cells via assessment of transepithelial bioelectric properties (Knowles et al., 1981, N. Engl. J. Med. 305(25):1489-95; Knowles et al., 1995, Hum. Gene Ther. 6:445). TEPD is performed in each nostril using standardized techniques (Standaert et al., 2004, Ped. Pulm. 37:385-92). In the procedure, a small plastic catheter is used to assess electrical differences across the outer cell membrane of nasal mucosa cells in the nostril. TEPD values are expressed in millivolts, or mV. A chloride conductance equal to or more electrically negative than −5.0 mV is generally considered to be in the normal range. […] TEPD assessments can also be made on rectal epithelial cells and lower respiratory epithelial cells. Because of the role of the CFTR protein in transporting chloride ions across cell membranes, and because of the absence of this protein, cystic fibrosis patients have an abnormal TEPD chloride conductance. As an endpoint, TEPD has the advantage that it can detect chloride transport changes that are a quantitative integration of the presence, functional activity, and apical location of the CFTR in airway cells. Furthermore, it is a direct measure of CFTR activity that is not likely to be affected by supportive or palliative treatments for CF (with the possible exception of systemically administered aminoglycoside antibiotics). Of importance is evidence that TEPD values can correlate with the degree of pulmonary dysfunction and radiographic abnormality (Ho et al., 1997, Eur. Respir. J. 10(9):2018-22; Fajac et al., 1998, Eur. Respir. J 12(6):1295-300; Sermet-Gaudelus et al., 2005, Am. J. Respit. Crit. Care Med. 171(9):1026-1031). […] Under baseline conditions, TEPD-assessed chloride channel activity is very unlikely to normalize spontaneously in patients with CF; any observed improvements in TEPD-assessed chloride channel activity are expected to specifically denote pharmacological activity of CFTR-correcting therapies. […]
# Clinical endpoints were evaluated using the procedures set forth above. […] Pulmonary tests, including FEV1, FVC and MEF25-75, were measured prior to treatment, on day −1 of Cycle 2, on day 13 or 14 of Cycle 1 and day 13 or 14 of Cycle 2 in the study being conducted in Israel and the same parameters were measured prior to treatment and on day 13 or 14 of Cycle 2 in the study being conducted in the United States. […]
# [1] = higher dose level (10, 10, 20 mg/kg TID, 14 days)
# [2] = lower dose level (4, 4, 8 mg/kg TID, 14 days)
compound,measurement,setting,value
"O=C(O)c1cccc(-c2noc(-c3ccccc3F)n2)c1 [3-[5-(2-fluoro-phenyl)-[1,2,4]oxadiazol-3-yl]-benzoic acid]","Mean change in TEPD chloride conductance, best of nostrils",[1],−6.4 mV
same,"Mean change in TEPD chloride conductance, mean of both nostrils",[1],−4.4 mV
same,"Mean change in TEPD chloride conductance, best of nostrils",[2],−9.0 mV
same,"Mean change in TEPD chloride conductance, mean of both nostrils",[2],−6.7 mV
